Assays:
[1] = tested on: Cyperus iria; assay: Preemergence weed control under flooded paddy conditions, CYPIR (Rice Flatsedge); type: in vivo; conditions: flooded paddy, rated three to four weeks after treatment; on herbicidal effect rating, CYPIR: meaning of each grade not given here
[2] = tested on: Cyperus serotinus, Rottb.; assay: Preemergence weed control under flooded paddy conditions, CYPSE (Flatsedge); type: in vivo; conditions: rated three to four weeks after treatment; on herbicidal effect rating, CYPSE: meaning of each grade not given here
[3] = tested on: Echinochloa oryzoides (Ard.) Fritsch.; assay: Preemergence weed control under flooded paddy conditions, ECHORC (Watergrass (Calif.)); type: in vivo; conditions: flooded paddy, rated three to four weeks after treatment; on herbicidal effect rating, ECHORC: meaning of each grade not given here
[4] = tested on: Monochoria vaginalis, Presl.; assay: Preemergence weed control under flooded paddy conditions, MOOVA (Monochoria); type: in vivo; conditions: flooded paddy, rated three to four weeks after treatment; on herbicidal effect rating, MOOVA: meaning of each grade not given here
[5] = tested on: Sagittaria pygmaea, L.; assay: Preemergence weed control under flooded paddy conditions, SAGPY (Arrowhead (Pygmaea)); type: in vivo; conditions: flooded paddy, rated three to four weeks after treatment; on herbicidal effect rating, SAGPY: meaning of each grade not given here
[6] = tested on: Oryza sativa, (L.) Tebonnet; assay: Rice tolerance to post-transplant applications under flooded paddy conditions (Example 187), ORYSAT (Rice, Tebonnet); conditions: rated three to four weeks after treatment
[7] = Rate 0.0320 kg/ha, preemergence
[8] = Rate 0.0620 kg/ha, preemergence
[9] = Rate 0.1250 kg/ha, preemergence
[10] = Rate 0.2500 kg/ha, preemergence
[11] = Rate 0.0320 kg/ha, preemergence weeds
[12] = Rate 0.0620 kg/ha, preemergence weeds
[13] = Rate 0.1250 kg/ha, preemergence weeds
[14] = Rate 0.2500 kg/ha, preemergence weeds
[15] = Rate 0.0313 kg/ha, preemergence
[16] = Rate 0.0625 kg/ha, preemergence

Cn1c(C(F)(F)F)cc(=O)n(-c2ccc3snc(-c4ccccc4OCC(=O)NS(C)(=O)=O)c3c2)c1=O [Example 268, Acetamide, 2-{o-{5-[3,6-dihydro-3-methyl-2,6-dioxo-4-(trifluoromethyl)-1(2H)-pyrimidinyl]-1,2-benzisothiazol-3-yl}phenoxy}-N-(methylsulfonyl)-]
CYPIR herbicidal effect rating [1, 7]: 1.0
CYPIR herbicidal effect rating [1, 8]: 3.0
CYPIR herbicidal effect rating [1, 9]: 6.0
CYPIR herbicidal effect rating [1, 10]: 7.5
CYPSE herbicidal effect rating [2, 7]: 1.0
CYPSE herbicidal effect rating [2, 8]: 5.5
CYPSE herbicidal effect rating [2, 9]: 9.0
CYPSE herbicidal effect rating [2, 10]: 9.0
ECHORC herbicidal effect rating [3, 7]: 1.0
ECHORC herbicidal effect rating [3, 8]: 3.0
ECHORC herbicidal effect rating [3, 9]: 4.5
ECHORC herbicidal effect rating [3, 10]: 4.5
MOOVA herbicidal effect rating [4, 7]: 7.5
MOOVA herbicidal effect rating [4, 8]: 9.0
MOOVA herbicidal effect rating [4, 9]: 9.0
MOOVA herbicidal effect rating [4, 10]: 9.0
SAGPY herbicidal effect rating [5, 7]: 0.0
SAGPY herbicidal effect rating [5, 8]: 1.0
SAGPY herbicidal effect rating [5, 9]: 1.0
SAGPY herbicidal effect rating [5, 10]: 4.0
ORYSAT herbicidal effect rating ([6]; Rate 0.0320 kg/ha): 3.5
ORYSAT herbicidal effect rating ([6]; Rate 0.0620 kg/ha): 4.0
ORYSAT herbicidal effect rating ([6]; Rate 0.1250 kg/ha): 5.0
ORYSAT herbicidal effect rating ([6]; Rate 0.2500 kg/ha): 7.5

Cc1cccc(COCc2nsc3ccc(-n4c(=O)cc(C(F)(F)F)n(C)c4=O)cc23)c1 [Example 587, 2,4(1H,3H)-Pyrimidinedione, 1-methyl-3-{3-{[(m-methylbenzyl)oxy]methyl}-1,2-benzisothiazol-5-yl}-6-(trifluoromethyl)-]
herbicidal effect rating, CYPIR [1, 7]: 4.0
herbicidal effect rating, CYPIR [1, 8]: 8.0
herbicidal effect rating, CYPIR [1, 9]: 9.0
herbicidal effect rating, CYPIR [1, 10]: 9.0
herbicidal effect rating, CYPSE [2, 7]: 0.0
herbicidal effect rating, CYPSE [2, 9]: 0.0
herbicidal effect rating, ECHORC [3, 7]: 7.0
herbicidal effect rating, ECHORC [3, 8]: 7.0
herbicidal effect rating, ECHORC [3, 9]: 9.0
herbicidal effect rating, ECHORC [3, 10]: 9.0
herbicidal effect rating, MOOVA [4, 7]: 5.0
herbicidal effect rating, MOOVA [4, 8]: 5.0
herbicidal effect rating, MOOVA [4, 9]: 9.0
herbicidal effect rating, MOOVA [4, 10]: 9.0
herbicidal effect rating, SAGPY [5, 7]: 0.0
herbicidal effect rating, SAGPY [5, 8]: 2.0
herbicidal effect rating, SAGPY [5, 9]: 5.0
herbicidal effect rating, SAGPY [5, 10]: 5.0
herbicidal effect rating ORYSAT ([6]; Rate 0.0320 kg/ha): 4.0
herbicidal effect rating ORYSAT ([6]; Rate 0.0620 kg/ha): 4.0
herbicidal effect rating ORYSAT ([6]; Rate 0.1250 kg/ha): 4.0
herbicidal effect rating ORYSAT ([6]; Rate 0.2500 kg/ha): 5.0

COc1ccc(C)cc1-c1noc2cc(F)c(-n3c(=O)cc(C(F)(F)F)n(C)c3=O)cc12 [Example 345, 2,4(1H,3H)-Pyrimidinedione, 3-[6-fluoro-3-(6-methoxy-m-tolyl)-1,2-benzisoxazol-5-yl]-1-methyl-6-(trifluoromethyl)-]
herbicidal effect rating, CYPIR [1, 11]: 9.0
herbicidal effect rating, CYPIR [1, 12]: 9.0
herbicidal effect rating, CYPIR [1, 13]: 9.0
herbicidal effect rating, CYPIR [1, 14]: 9.0
herbicidal effect rating, CYPSE [2, 11]: 5.0
herbicidal effect rating, CYPSE [2, 12]: 9.0
herbicidal effect rating, CYPSE [2, 13]: 4.5
herbicidal effect rating, CYPSE [2, 14]: 9.0
herbicidal effect rating, ECHORC [3, 11]: 9.0
herbicidal effect rating, ECHORC [3, 12]: 9.0
herbicidal effect rating, ECHORC [3, 13]: 9.0
herbicidal effect rating, ECHORC [3, 14]: 9.0
herbicidal effect rating, MOOVA [4, 11]: 9.0
herbicidal effect rating, MOOVA [4, 12]: 9.0
herbicidal effect rating, MOOVA [4, 13]: 9.0
herbicidal effect rating, MOOVA [4, 14]: 9.0
herbicidal effect rating, SAGPY [5, 11]: 4.5
herbicidal effect rating, SAGPY [5, 12]: 9.0
herbicidal effect rating, SAGPY [5, 13]: 9.0
herbicidal effect rating, SAGPY [5, 14]: 9.0
herbicidal effect rating ORYSAT ([6]; Rate 0.0320 kg/ha): 5.5
herbicidal effect rating ORYSAT ([6]; Rate 0.0620 kg/ha): 5.5
herbicidal effect rating ORYSAT ([6]; Rate 0.1250 kg/ha): 5.5
herbicidal effect rating ORYSAT ([6]; Rate 0.2500 kg/ha): 6.0

Cc1ccc(OCC(=O)OCCCl)c(-c2nsc3ccc(-n4c(=O)cc(C(F)(F)F)n(C)c4=O)cc23)c1 [Example 71, 2-Chloroethyl {{2-{5-[3,6-dihydro-3-methyl-2,6-dioxo-4-(trifluoromethyl)-1(2H)-pyrimidinyl]-1,2-benzisothiazol-3-yl}-p-tolyl}oxy}acetate]
herbicidal effect rating, CYPIR ([1]; 0.0313 kg/ha, preemergence): 0.0
herbicidal effect rating, CYPIR ([1]; 0.0625 kg/ha, preemergence): 0.0
herbicidal effect rating, CYPIR ([1]; 0.1250 kg/ha, preemergence): 0.0
herbicidal effect rating, CYPIR ([1]; 0.2500 kg/ha, preemergence): 2.0
herbicidal effect rating, CYPSE ([2]; 0.0313 kg/ha, preemergence): 0.0
herbicidal effect rating, CYPSE ([2]; 0.0625 kg/ha, preemergence): 0.0
herbicidal effect rating, CYPSE ([2]; 0.1250 kg/ha, preemergence): 2.0
herbicidal effect rating, CYPSE ([2]; 0.2500 kg/ha, preemergence): 9.0
herbicidal effect rating, ECHORC ([3]; 0.0313 kg/ha, preemergence): 5.5
herbicidal effect rating, ECHORC ([3]; 0.0625 kg/ha, preemergence): 7.5
herbicidal effect rating, ECHORC ([3]; 0.1250 kg/ha, preemergence): 8.5
herbicidal effect rating, ECHORC ([3]; 0.2500 kg/ha, preemergence): 9.0
herbicidal effect rating, MOOVA ([4]; 0.0313 kg/ha, preemergence): 8.0
herbicidal effect rating, MOOVA ([4]; 0.0625 kg/ha, preemergence): 9.0
herbicidal effect rating, MOOVA ([4]; 0.1250 kg/ha, preemergence): 9.0
herbicidal effect rating, MOOVA ([4]; 0.2500 kg/ha, preemergence): 9.0
herbicidal effect rating, SAGPY ([5]; 0.0313 kg/ha, preemergence): 0.0
herbicidal effect rating, SAGPY ([5]; 0.0625 kg/ha, preemergence): 0.0
herbicidal effect rating, SAGPY ([5]; 0.1250 kg/ha, preemergence): 0.0
herbicidal effect rating, SAGPY ([5]; 0.2500 kg/ha, preemergence): 4.0
herbicidal effect rating, ORYSAT (rice tolerance) ([6]; 0.0313 kg/ha): 2.0
herbicidal effect rating, ORYSAT (rice tolerance) ([6]; 0.0625 kg/ha): 3.5
herbicidal effect rating, ORYSAT (rice tolerance) ([6]; 0.1250 kg/ha): 5.5
herbicidal effect rating, ORYSAT (rice tolerance) ([6]; 0.2500 kg/ha): 7.0

Cn1c(C(F)(F)F)cc(=O)n(-c2ccc3snc(COCCCCl)c3c2)c1=O [Example 224, 3-{3-[(3-Chloropropoxy)methyl]-1,2-benzisothiazol-5-yl}-1-methyl-6-(trifluoromethyl)-2,4(1H,3H)-pyrimidinedione]
CYPIR herbicidal effect rating [1, 15]: 4.0
CYPIR herbicidal effect rating [1, 16]: 7.0
CYPIR herbicidal effect rating [1, 9]: 8.0
CYPIR herbicidal effect rating [1, 10]: 8.0
CYPSE herbicidal effect rating [2, 15]: 0.0
CYPSE herbicidal effect rating [2, 16]: 0.0
CYPSE herbicidal effect rating [2, 9]: 2.0
CYPSE herbicidal effect rating [2, 10]: 7.0
ECHORC herbicidal effect rating [3, 15]: 6.0
ECHORC herbicidal effect rating [3, 16]: 9.0
ECHORC herbicidal effect rating [3, 9]: 9.0
ECHORC herbicidal effect rating [3, 10]: 9.0
MOOVA herbicidal effect rating [4, 15]: 9.0
MOOVA herbicidal effect rating [4, 16]: 9.0
MOOVA herbicidal effect rating [4, 9]: 9.0
MOOVA herbicidal effect rating [4, 10]: 9.0
SAGPY herbicidal effect rating [5, 15]: 0.0
SAGPY herbicidal effect rating [5, 16]: 2.0
SAGPY herbicidal effect rating [5, 9]: 4.0
SAGPY herbicidal effect rating [5, 10]: 8.0
ORYSAT herbicidal effect rating ([6]; Rate 0.0313 kg/ha): 6.0
ORYSAT herbicidal effect rating ([6]; Rate 0.0625 kg/ha): 7.0
ORYSAT herbicidal effect rating ([6]; Rate 0.1250 kg/ha): 8.0
ORYSAT herbicidal effect rating ([6]; Rate 0.2500 kg/ha): 9.0
